In ChEMBL document CHEMBL6096719, “Kidney Targeting Smart Antibiotic Discovery: Multimechanism Pleuromutilins for Pyelonephritis Therapy” (J Med Chem, 2025):
Calls of active or inactive are those of the source. The rule behind the calls is not given here.

Assays:
Escherichia coli [1] = assay: Antibiofilm activity against Escherichia coli ATCC25922 assessed as eradication of biofilms at 0.5 ug/ml incubated for 4 hrs by field emission scanning electron microscopy; type: functional, organism-based; settings: dose 0.5 µg/ml
Escherichia coli [2] = assay: Antibacterial activity against Escherichia coli ATCC25922 infected in pyelonephritis C57BL/6 mouse model assessed as recovery of neutrophils count in blood at 3 to 10 mg/kg, iv qd for 3 days administered at 2 days post-infection; type: functional, organism-based; settings: dose 3-10 mg/kg, time 3.0 day
Staphylococcus aureus [3] = assay: Antibacterial activity against methicillin-resistant Staphylococcus aureus 596 assessed as inhibition of bacterial growth incubated for 24 hrs by broth microdilution method; type: functional
[4] = AUC (0 to 24 hrs) in Sprague-Dawley rat at 5 mg/kg, iv; type: ADME, organism-based; settings: in vivo
[5] = Observed MRT (0 to infinity) in Sprague-Dawley rat at 5 mg/kg, iv; type: ADME, organism-based; settings: in vivo
[6] = Observed apparent volume of distribution in Sprague-Dawley rat at 5 mg/kg, iv; type: ADME, organism-based; settings: in vivo, read-out: Vz
Staphylococcus aureus [7] = assay: Antibiofilm activity against methicillin-resistant Staphylococcus aureus ATCC33591 assessed as disruption of preformed biofilms at 0.5 ug/ml incubated for 24 hrs with preformed biofilms by crystal violet staining based analysis; type: functional; settings: dose 0.5 µg/ml
Cell membrane [8] = assay: Disruption of cell membrane in methicillin-resistant Staphylococcus aureus ATCC33591 assessed as increase in extracellular ATP content at 0.125 to 0.25 ug/ml incubated for 30 mins by luminescence based analysis; settings: dose 0.125-0.25 µg/ml
Metamycoplasma hominis = assay: Anti-mycoplasma activity against Mycoplasma hominis PG-21 ATCC23114 assessed as inhibition of bacterial growth incubated for 1 to 2 days by broth microdilution method; type: functional; settings: time 1-2 day
Chlamydia pneumoniae [9] = assay: Anti-mycoplasma activity against Chlamydophila pneumoniae CWL-029 VR1310 assessed as inhibition of bacterial growth incubated for 3 to 5 days by broth microdilution method; type: functional; settings: time 3-5 day
[10] = test system: Mesomycoplasma hyopneumoniae; assay: Anti-mycoplasma activity against Mycoplasma hyopneumoniae J NCTC10110 assessed as inhibition of bacterial growth incubated for 6 to 7 days by broth microdilution method; type: functional; settings: time 6-7 day
Cell membrane [11] = assay: Disruption of cell membrane in methicillin-resistant Staphylococcus aureus ATCC33591 assessed as decrease in intracellular ATP content at 0.125 to 0.25 ug/ml incubated for 30 mins by luminescence based analysis; settings: dose 0.125-0.25 µg/ml
Cell membrane [12] = assay: Disruption of cell membrane in methicillin-resistant Staphylococcus aureus ATCC33591 assessed as dissipation of membrane potential at 0.125 to 0.5 ug/ml incubated for 30 mins by DiBAC4(3) probe based fluorescence spectrophotometry; settings: dose 0.125-0.5 µg/ml
[13] = Cmax in Sprague-Dawley rat at 10 mg/kg, po; type: ADME, organism-based; settings: in vivo
[14] = Cytotoxicity against human HEK293 cells assessed as reduction in cell viability incubated for 24 hrs by CCK8 assay; type: toxicity, cell-based
Mesomycoplasma hyorhinis = assay: Anti-mycoplasma activity against Mycoplasma hyorhinis BTS-7 NCTC10130 assessed as inhibition of bacterial growth incubated for 3 to 5 days by broth microdilution method; type: functional; settings: time 3-5 day
[15] = Observed apparent oral clearance in Sprague-Dawley rat at 10 mg/kg, po; type: ADME, organism-based; settings: in vivo
Chlamydia pneumoniae [16] = assay: Anti-mycoplasma activity against Chlamydophila pneumoniae TW183 VR-2282 assessed as inhibition of bacterial growth incubated for 3 to 5 days by broth microdilution method; type: functional; settings: time 3-5 day
Escherichia coli [17] = assay: Antibacterial activity against Escherichia coli ATCC25922 infected in pyelonephritis C57BL/6 mouse model assessed as decrease in inflammatory cell infiltration in kidney at 3 to 10 mg/kg, iv qd for 3 days administered at 2 days post-infection by Hematoxylin-Eosin staining based analysis; type: functional, organism-based; settings: dose 3-10 mg/kg, time 3.0 day
[18] = target: Voltage-gated inwardly rectifying potassium channel KCNH2 (Homo sapiens, UniProt Q12809); assay: Inhibition of hERG expressed in HEK293 cells assessed as inhibition of tail current measured at holding potential of -80 mV by automated patch clamp analysis; type: toxicity, cell-based
Chain of Voltage-gated inwardly rectifying potassium channel KCNH2 (Q12809 whole entry): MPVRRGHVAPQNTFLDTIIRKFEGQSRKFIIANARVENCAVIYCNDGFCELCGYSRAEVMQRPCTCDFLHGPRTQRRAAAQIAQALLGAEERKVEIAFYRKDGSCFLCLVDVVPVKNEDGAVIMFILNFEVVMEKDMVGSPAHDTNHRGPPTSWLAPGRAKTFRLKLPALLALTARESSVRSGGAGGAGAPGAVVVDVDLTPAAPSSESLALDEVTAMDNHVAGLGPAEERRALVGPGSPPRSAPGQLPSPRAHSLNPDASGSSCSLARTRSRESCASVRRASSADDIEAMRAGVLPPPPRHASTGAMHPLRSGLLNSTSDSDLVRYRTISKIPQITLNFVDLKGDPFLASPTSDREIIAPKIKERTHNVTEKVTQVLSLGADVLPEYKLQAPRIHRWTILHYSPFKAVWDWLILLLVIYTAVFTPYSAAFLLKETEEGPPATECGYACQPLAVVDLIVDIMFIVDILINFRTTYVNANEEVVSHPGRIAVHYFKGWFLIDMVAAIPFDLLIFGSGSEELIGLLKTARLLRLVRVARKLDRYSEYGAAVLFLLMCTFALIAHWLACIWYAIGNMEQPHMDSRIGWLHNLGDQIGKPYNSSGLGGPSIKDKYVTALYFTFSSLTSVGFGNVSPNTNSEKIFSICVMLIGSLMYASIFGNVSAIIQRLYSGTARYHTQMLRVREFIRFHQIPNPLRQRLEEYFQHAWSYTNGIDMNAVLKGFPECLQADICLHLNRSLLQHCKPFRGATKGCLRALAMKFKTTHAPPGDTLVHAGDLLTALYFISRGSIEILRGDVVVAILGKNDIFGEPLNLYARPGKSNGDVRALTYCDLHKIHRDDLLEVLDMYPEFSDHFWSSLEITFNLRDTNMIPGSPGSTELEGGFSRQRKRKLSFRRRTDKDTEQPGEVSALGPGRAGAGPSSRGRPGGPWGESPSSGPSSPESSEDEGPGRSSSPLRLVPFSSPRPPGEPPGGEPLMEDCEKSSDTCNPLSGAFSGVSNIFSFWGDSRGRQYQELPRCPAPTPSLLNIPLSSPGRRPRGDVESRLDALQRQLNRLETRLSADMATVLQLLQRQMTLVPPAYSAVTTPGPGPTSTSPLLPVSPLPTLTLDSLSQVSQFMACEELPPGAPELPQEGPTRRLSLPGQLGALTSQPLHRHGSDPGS

Cell membrane [19] = assay: Disruption of cell membrane in Escherichia coli ATCC25922 assessed as dissipation of membrane potential at 0.125 to 0.5 ug/ml incubated for 30 mins by DiBAC4(3) probe based fluorescence spectrophotometry; settings: dose 0.125-0.5 µg/ml
Escherichia coli [20] = assay: Antibacterial activity against Escherichia coli ATCC 25922 assessed as inhibition of bacterial growth incubated for 24 hrs by broth microdilution method; type: functional
Escherichia coli [21] = assay: Antibacterial activity against Escherichia coli ATCC25922 infected in pyelonephritis C57BL/6 mouse model assessed as decrease in kidney swelling at 3 to 10 mg/kg, iv qd for 3 days administered at 2 days post-infection; type: functional, organism-based; settings: dose 3-10 mg/kg, time 3.0 day
Staphylococcus aureus [22] = assay: Antibacterial activity against methicillin-resistant Staphylococcus aureus 206 assessed as inhibition of bacterial growth incubated for 24 hrs by broth microdilution method; type: functional
[23] = AUC (0 to 24 hrs) in Sprague-Dawley rat at 10 mg/kg, po; type: ADME, organism-based; settings: in vivo
Staphylococcus aureus [24] = assay: Antibiofilm activity against methicillin-resistant Staphylococcus aureus ATCC33591 assessed as eradication of biofilms at 0.5 ug/ml incubated for 4 hrs by field emission scanning electron microscopy; type: functional, organism-based; settings: dose 0.5 µg/ml
[25] = test system: Mycoplasmoides pneumoniae; assay: Anti-mycoplasma activity against Mycoplasma pneumoniae M129 ATCC29342 assessed as inhibition of bacterial growth incubated for 3 to 5 days by broth microdilution method; type: functional; settings: time 3-5 day
Escherichia coli [26] = assay: Antibiofilm activity against Escherichia coli ATCC25922 assessed as disruption of preformed biofilms at 0.5 ug/ml incubated for 24 hrs with preformed biofilms by crystal violet staining based analysis; type: functional; settings: dose 0.5 µg/ml
Cell membrane [27] = assay: Disruption of cell membrane in methicillin-resistant Staphylococcus aureus ATCC33591 assessed as induction of cell death by measuring increase in propidium iodide fluorescence intensity at 0.5 ug/ml incubated for 2 hrs by bright field microscopy; type: subcellular; settings: dose 0.5 µg/ml
Staphylococcus aureus [28] = assay: Antibacterial activity against methicillin-resistant Staphylococcus aureus ATCC33591 infected in systemic intraperitoneal infection Kunming mouse model assessed as increase in animal's survival rate at 5 to 20 mg/kg, ip treated at 1 hr post-infection and measured for 7 days; type: functional, organism-based; settings: dose 5-20 mg/kg, time 7.0 day
Escherichia coli [29] = assay: Antibacterial activity against Escherichia coli ATCC25922 assessed as post-antibiotic effect at 0.25 ug/ml incubated for 1 hr followed by washing and incubation in MHB medium for 10 hrs and later cultured on agar plate for overnight; type: functional; settings: dose 0.25 µg/ml
Escherichia coli [30] = assay: Antibacterial activity against Escherichia coli CMCC 44103 assessed as inhibition of bacterial growth incubated for 24 hrs by broth microdilution method; type: functional
[31] = Cmax in Sprague-Dawley rat at 5 mg/kg, iv; type: ADME, organism-based; settings: in vivo
Escherichia coli [32] = assay: Antibacterial activity against Escherichia coli ATCC25922 infected in pyelonephritis C57BL/6 mouse model assessed as restoration of normal renal cortex and pelvis structures at >=5 mg/kg, iv qd for 3 days administered at 2 days post-infection by Hematoxylin-Eosin staining based analysis; type: functional, organism-based; settings: time 3.0 day
[33] = test system: Staphylococcus epidermidis; assay: Antibacterial activity against methicillin-resistant Staphylococcus epidermidis ATCC 51625 assessed as inhibition of bacterial growth incubated for 24 hrs by broth microdilution method; type: functional
Enterococcus = assay: Antibacterial activity against vancomycin-resistant Enterococcus 80 assessed as inhibition of bacterial growth incubated for 24 hrs by broth microdilution method; type: functional

**Q.** What does the source list for `C=C[C@]1(C)C[C@@H](OC(=O)CSc2nc3cc[n+](Cc4ccc(C)cc4)cc3[nH]2)[C@]2(C)[C@H](C)CC[C@]3(CCC(=O)[C@H]32)[C@@H](C)[C@@H]1O.[Br-]`?
**A.** Activity (Escherichia coli [1]): Active; Almost Complete Eradication Of Bacteria Observed; Activity (Escherichia coli [2]): Active; MIC (Staphylococcus aureus [3]): 2 µg/mL; AUC(0-t) [4]: 16200 ng·h/mL; MRT inf [5]: 1.14 h; Vd [6]: 0.511 L/kg; Activity (Staphylococcus aureus [7]): 84.31%; Activity (Cell membrane [8]): Active; MIC (Metamycoplasma hominis): < 0.04 µg/mL; MIC (Chlamydia pneumoniae [9]): < 0.04 µg/mL; MIC [10]: < 0.04 µg/mL; Activity (Cell membrane [11]): Active; Activity (Cell membrane [12]): Active; Cmax [13]: 6210 ng/mL; CC50 at 24 h [14]: 96.4 µM; MIC (Mesomycoplasma hyorhinis): < 0.04 µg/mL; CL/F [15]: 10.5 mL/min/kg; MIC (Chlamydia pneumoniae [16]): < 0.04 µg/mL; Activity (Escherichia coli [17]): Active; IC50 [18]: 71.5 µM; Activity (Cell membrane [19]): Active; MIC (Escherichia coli [20]): < 1 µg/mL; Activity (Escherichia coli [21]): Active; MIC (Staphylococcus aureus [22]): 1 µg/mL; AUC(0-t) [23]: 14600 ng·h/mL; Activity (Staphylococcus aureus [24]): Active; Almost Complete Eradication Of Bacteria Observed; MIC [25]: < 0.008 µg/mL; Activity (Escherichia coli [26]): 88.55%; Activity (Cell membrane [27]): Active; Activity (Staphylococcus aureus [28]): Active; Superior Efficacy Over Valnemulin Observed; PAE (Escherichia coli [29]): 1.78 h; MIC (Escherichia coli [30]): < 1 µg/mL; Cmax [31]: 25600 ng/mL; Activity (Escherichia coli [32]): Active; MIC [33]: < 1 µg/mL; MIC (Enterococcus): 4 µg/mL
